Blank lines part the entries; values can stand above or below the compound they belong to.
Experiments:
MWCL-1 = assay: CellTiter-Glo cell viability assay; format: cell-based
Experimental: (§1) CellTiter-Glo® Luminescent cell viability assay (Promega) was used to assess cell survival following treatment with the compounds described. Cells were seeded into 384 well plates with the EL406 Combination Washer Dispenser (BioTek Instruments, Inc.), and the compounds were injected into the cells culture media with the JANUS Automated Workstation (PerkinElmer Inc.). Cells were treated with a series diluted inhibitors (20˜0.04 μM) for 72 hours at 37° C. Luminescent measurement is performed using the 2104 Envision® Multilabel Reader (PerkinElmer Inc.).

BCWM.1 = assay: CellTiter-Glo cell viability assay; format: cell-based
Experimental: as §1

Ramos = assay: CellTiter-Glo cell viability assay; format: cell-based; details: 72 hours
Experimental: as §1

OCI-Ly3 = assay: CellTiter-Glo cell viability assay; format: cell-based
Experimental: as §1

OCI-Ly19 = assay: CellTiter-Glo cell viability assay; format: cell-based; details: Homo sapiens, 72 hours
Experimental: as §1

BTK = BTK (Homo sapiens (Human), UniProt Q06187); assay: Invitrogen Select Screening kinase assay; format: biochemical; details: in vitro
BTK, sequence (Q06187 whole entry): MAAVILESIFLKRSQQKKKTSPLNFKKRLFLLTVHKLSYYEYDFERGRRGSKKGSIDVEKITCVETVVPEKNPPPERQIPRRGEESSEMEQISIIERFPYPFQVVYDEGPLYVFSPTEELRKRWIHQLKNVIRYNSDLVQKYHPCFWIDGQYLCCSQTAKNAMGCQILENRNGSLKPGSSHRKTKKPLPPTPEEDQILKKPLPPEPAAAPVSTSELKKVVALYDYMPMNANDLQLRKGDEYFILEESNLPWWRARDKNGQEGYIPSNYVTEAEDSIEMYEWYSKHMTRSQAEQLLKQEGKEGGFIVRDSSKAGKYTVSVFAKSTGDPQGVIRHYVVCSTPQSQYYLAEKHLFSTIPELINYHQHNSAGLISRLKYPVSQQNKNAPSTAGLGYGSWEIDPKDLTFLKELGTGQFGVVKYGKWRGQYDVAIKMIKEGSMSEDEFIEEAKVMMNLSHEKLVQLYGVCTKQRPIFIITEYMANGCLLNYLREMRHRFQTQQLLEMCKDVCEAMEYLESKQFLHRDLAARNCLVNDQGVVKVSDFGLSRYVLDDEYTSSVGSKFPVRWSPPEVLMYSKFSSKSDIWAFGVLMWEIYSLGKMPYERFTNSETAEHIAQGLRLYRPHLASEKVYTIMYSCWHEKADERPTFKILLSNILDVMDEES
Text: The in vitro activity of the compounds described herein in inhibiting TAK1, HCK, and other kinases were obtained using an Invitrogen Select Screening assay as known in the art. The IC50 values determined from this assay are shown below.

RPCIWM-1 = assay: CellTiter-Glo cell viability assay; format: cell-based; details: 72 hours
Experimental: as §1

HCK = HCK (Homo sapiens (Human), UniProt P08631); assay: Invitrogen Select Screening kinase assay; format: biochemical; details: in vitro, read-out: HCK IC50 (nM) Inv
HCK, sequence (P08631 whole entry): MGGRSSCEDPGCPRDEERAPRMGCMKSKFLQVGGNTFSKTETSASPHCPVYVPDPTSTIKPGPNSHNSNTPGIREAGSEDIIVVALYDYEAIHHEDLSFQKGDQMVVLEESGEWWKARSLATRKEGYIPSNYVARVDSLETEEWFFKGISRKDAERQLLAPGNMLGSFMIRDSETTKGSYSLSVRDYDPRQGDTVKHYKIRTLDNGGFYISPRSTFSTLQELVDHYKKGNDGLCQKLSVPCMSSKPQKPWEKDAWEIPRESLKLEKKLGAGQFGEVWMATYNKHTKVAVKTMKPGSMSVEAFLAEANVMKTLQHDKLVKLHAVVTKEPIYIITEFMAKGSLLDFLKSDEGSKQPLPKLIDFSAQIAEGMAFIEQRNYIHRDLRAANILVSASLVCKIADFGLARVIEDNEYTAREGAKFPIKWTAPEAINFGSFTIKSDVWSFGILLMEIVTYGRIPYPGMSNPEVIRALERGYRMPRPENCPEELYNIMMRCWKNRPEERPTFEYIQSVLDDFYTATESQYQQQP

Compound: CCN1CCN(Cc2ccc(C(=O)Nc3ccc(C)c(NC(=O)c4cncc(-c5cccs5)c4)c3)cc2C(F)(F)F)CC1 [I-1, N-(5-(4-((4-ethylpiperazin-1-yl)methyl)-3-(trifluoromethyl)benzamido)-2-methylphenyl)-5-(thiophen-2-yl)nicotinamide]
EC50 (MWCL-1; 72 h): 459 nM
EC50 (BCWM.1; BCWM1, 72 h): 38 nM
EC50 (Ramos; Homo sapiens, Ramos): 4150 nM
EC50 (OCI-Ly3; Homo sapiens, OCI-Ly3, 72 h): 2900 nM
EC50 (OCI-Ly19): 552 nM
IC50 (BTK): 22.9 nM

Compound: Cc1cn(-c2cc(NC(=O)c3ccc(C)c(NC(=O)c4cncc(-c5cccs5)c4)c3)cc(C(F)(F)F)c2)cn1 [I-3, N-(2-methyl-5-((3-(4-methyl-1H-imidazol-1-yl)-5-(trifluoromethyl)phenyl)carbamoyl)phenyl)-5-(thiophen-2-yl)nicotinamide]
EC50 (MWCL-1; 72 h): 355 nM
EC50 (BCWM.1; BCWM1, 72 h): 141 nM
EC50 (RPCIWM-1): 725 nM
EC50 (Ramos; Homo sapiens, Ramos): 555 nM
EC50 (OCI-Ly3; Homo sapiens, OCI-Ly3, 72 h): 411 nM
EC50 (OCI-Ly19): 508 nM
IC50 (BTK): 196 nM

Compound: Cc1ccc(C(=O)Nc2cc(N3CCN(C)CC3)cc(C(F)(F)F)c2)cc1NC(=O)c1cncc(-c2cccs2)c1 [I-4, N-(2-methyl-5-((3-(4-methylpiperazin-1-yl)-5-(trifluoromethyl)phenyl)carbamoyl)phenyl)-5-(thiophen-2-yl)nicotinamide]
IC50 (BTK): 459 nM

Compound: CCN1CCN(c2ccc(NC(=O)c3ccc(C)c(NC(=O)c4cncc(-c5cccs5)c4)c3)cc2C(F)(F)F)CC1 [I-5, N-(5-((4-(4-ethylpiperazin-1-yl)-3-(trifluoromethyl)phenyl)carbamoyl)-2-methylphenyl)-5-(thiophen-2-yl)nicotinamide]
EC50 (MWCL-1; 72 h): 1090 nM
EC50 (BCWM.1; BCWM1, 72 h): 365 nM
EC50 (RPCIWM-1): 0.02 nM
EC50 (Ramos; Homo sapiens, Ramos): 989 nM
EC50 (OCI-Ly3; Homo sapiens, OCI-Ly3, 72 h): 2160 nM
EC50 (OCI-Ly19): 1560 nM
IC50 (BTK): 3910 nM

Compound: Cc1ccc(C(=O)Nc2cc(N3CCOCC3)cc(N3CCOCC3)c2)cc1NC(=O)c1cncc(-c2cccs2)c1 [I-7, N-(5-((3,5-dimorpholinophenyl)carbamoyl)-2-methylphenyl)-5-(thiophen-2-yl)nicotinamide]
EC50 (MWCL-1; 72 h): 1760 nM
EC50 (BCWM.1; BCWM1, 72 h): 180 nM
EC50 (RPCIWM-1): 4800 nM
EC50 (Ramos; Homo sapiens, Ramos): 2380 nM
EC50 (OCI-Ly3; Homo sapiens, OCI-Ly3, 72 h): 3540 nM
EC50 (OCI-Ly19): 2970 nM
IC50 (BTK): 3420 nM

Compound: CCN1CCN(Cc2ccc(NC(=O)c3ccc(C)c(NC(=O)c4cncc(-c5cnoc5)c4)c3)cc2C(F)(F)F)CC1 [I-8]
IC50 (HCK): 5.33 nM
IC50 (BTK): 69.7 nM

Compound: CCN1CCN(Cc2ccc(NC(=O)c3ccc(C)c(NC(=O)c4cncc(-c5cnn(C)c5)c4)c3)cc2C(F)(F)F)CC1 [I-9]
IC50 (HCK): 2.43 nM
IC50 (BTK): 25.3 nM

EC50 (Ramos): 60 nM
EC50 (OCI-Ly3; 72 hours): 161 nM
Compound: N-(2-chloro-5-((4-((4- ethylpiperazin-1-yl)methyl)- 3-(trifluoromethyl)phenyl) carbamoyl)phenyl)-5- (thiophen-2-yl)nicotinamide [I-2]
EC50 (MWCL-1; 72 hours): 16 nM
EC50 (BCWM.1; 72 hours): 12 nM
EC50 (RPCIWM-1): 110 nM

From patent US10597387B2, “Methods to treat lymphoplasmacytic lymphoma” (Dana-Farber Cancer Institute, Inc., priority 2013, dated 2020)
